Measured values published in patent US10323022B2, “Pyrrolidinyl urea, pyrrolidinyl thiourea and pyrrolidinyl guanidine compounds as TrkA kinase inhibitors” (Array BioPharma Inc., priority 2011, dated 2019).

Target: TrkA (Homo sapiens (Human), UniProt P04629)
Assay: TrkA Omnia Assay
Assay type: biochemical
Conditions: averaged IC50; 20 nM enzyme, 500 μM ATP, 10 μM peptide substrate
In short: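 Recombinant TrkA (20 nM) preincubated 10 min at ambient temperature with compound, then Omnia Tyr Peptide #4 (10 μM) and ATP (500 μM) added in 25 mM MOPS pH 7.5, 5 mM MgCl2, 0.005% Triton X-100. Fluorescence (ex 360/em 485 nm) followed continuously for 70 min; IC50 from initial rates by 4- or 5-parameter logistic fit.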

Sequence of TrkA (P04629 33-796): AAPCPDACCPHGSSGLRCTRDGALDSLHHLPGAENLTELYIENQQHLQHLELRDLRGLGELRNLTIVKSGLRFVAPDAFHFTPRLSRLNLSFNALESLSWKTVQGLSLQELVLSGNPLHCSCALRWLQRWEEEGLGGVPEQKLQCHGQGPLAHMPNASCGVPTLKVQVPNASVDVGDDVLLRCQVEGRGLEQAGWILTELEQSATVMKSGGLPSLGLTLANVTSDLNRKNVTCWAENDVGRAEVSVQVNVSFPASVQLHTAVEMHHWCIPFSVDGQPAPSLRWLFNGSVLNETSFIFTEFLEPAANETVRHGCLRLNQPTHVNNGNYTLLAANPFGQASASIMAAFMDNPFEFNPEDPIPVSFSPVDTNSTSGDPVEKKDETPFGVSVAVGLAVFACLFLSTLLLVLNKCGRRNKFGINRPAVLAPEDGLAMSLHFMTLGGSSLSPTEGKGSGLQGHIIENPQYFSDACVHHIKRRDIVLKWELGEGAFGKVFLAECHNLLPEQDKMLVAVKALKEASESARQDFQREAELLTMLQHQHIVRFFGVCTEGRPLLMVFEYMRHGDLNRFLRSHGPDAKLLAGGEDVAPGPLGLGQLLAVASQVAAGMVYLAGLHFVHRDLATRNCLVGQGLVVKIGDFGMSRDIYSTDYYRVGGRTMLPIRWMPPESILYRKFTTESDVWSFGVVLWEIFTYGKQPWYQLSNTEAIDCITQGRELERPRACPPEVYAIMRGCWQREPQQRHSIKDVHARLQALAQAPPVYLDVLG

SMILES | IC50 [nM]
CCOc1nn(-c2ccccc2)c(NC(=O)N[C@@H]2CN(c3cn[nH]c3)C[C@H]2c2ccc(F)c(F)c2)c1C [Example 216, 1-((3S,4R)-4-(3,4-difluorophenyl)-1-(1H-pyrazol-4-yl)pyrrolidin-3-yl)-3-(3-ethoxy-4-methyl-1-phenyl-1H-pyrazol-5-yl)urea] | < 100
COCCN1C[C@@H](NC(=O)Nc2c(Cl)c(-c3ccccc3)nn2-c2ccccc2)[C@H](c2ccc(F)c(F)c2)C1 [Example 62, 1-(4-chloro-1,3-diphenyl-1H-pyrazol-5-yl)-3-((3S,4R)-4-(3,4-difluorophenyl)-1-(2-methoxyethyl)pyrrolidin-3-yl)urea] | < 100
COCCN1C[C@@H](NC(=O)Nc2c(C)c(-c3cnn(C)c3)nn2-c2ccccc2)[C@H](c2ccc(F)c(Cl)c2)C1 (relative stereo) [Example 293, 1-(trans-4-(3-chloro-4-fluorophenyl)-1-(2-methoxyethyl)pyrrolidin-3-yl)-3-(1′,4-dimethyl-1-phenyl-1H,1′H-[3,4′-bipyrazol]-5-yl)urea] | < 100
COCCN1C[C@@H](NC(=O)Nc2c(Cl)c(C[C@H](C)O)nn2-c2ccccc2)[C@H](c2ccc(F)c(F)c2)C1 [Example 412, 1-(4-chloro-3-((S)-2-hydroxypropyl)-1-phenyl-1H-pyrazol-5-yl)-3-((3S,4R)-4-(3,4-difluorophenyl)-1-(2-methoxyethyl)pyrrolidin-3-yl)urea] | < 100
COCCN1C[C@@H](NC(=O)Nc2c(C)c(-c3nnc(C)o3)nn2-c2ccccc2)[C@H](c2ccc(F)c(F)c2)C1 [Example 297, 1-((3S,4R)-4-(3,4-difluorophenyl)-1-(2-methoxyethyl)pyrrolidin-3-yl)-3-(4-methyl-3-(5-methyl-1,3,4-oxadiazol-2-yl)-1-phenyl-1H-pyrazol-5-yl)urea] | < 100
Cc1c(OC[C@H](O)CO)nn(-c2ccccc2)c1NC(=O)N[C@H]1CN(CC(F)(F)F)C[C@@H]1c1ccccc1 [Example 272, 1-(3-((R)-2,3-dihydroxvpropoxy)-4-methyl-1-phenyl-1H-pyrazol-5-yl)-3-((3R,4S)-4-phenyl-1-(2,2,2-trifluoroethyl)pyrrolidin-3-yl)urea] | < 100
COCCN1C[C@@H](NC(=S)Nc2c3c(nn2-c2ccccc2)CCC3)[C@H](c2ccccc2)C1 (relative stereo) [Example 21, 1-(trans-1-(2-methoxyethyl)-4-phenylpyrrolidin-3-yl)-3-(2-phenyl-2,4,5,6-tetrahydrocyclopenta[c]pyrazol-3-yl)thiourea] | < 100
COCCN1C[C@@H](NC(=O)Nc2c(C)c(COC)nn2-c2ccccc2)[C@H](c2cc(F)cc(F)c2)C1 [Example 124, 1-((3S,4R)-4-(3,5-difluorophenyl)-1-(2-methoxyethyl)pyrrolidin-3-yl)-3-(3-(methoxy-methyl)-4-methyl-1-phenyl-1H-pyrazol-5-yl)urea] | < 100
COCCN1C[C@@H](NC(=O)Nc2cc(-c3ccncc3)nn2C)[C@H](c2ccccc2)C1 [Example 96, 1-((3S,4R)-1-(2-methoxy-ethyl)-4-phenylpyrrolidin-3-yl)-3-(1-methyl-3-(pyridin-4-yl)-1H-pyrazol-5-yl)urea] | < 100
C[C@@H]1C(NC(=O)Nc2c3c(nn2-c2ccccc2)CCC3)[C@H](c2ccccc2)CN1CC(F)(F)F (stereo partly drawn) [Example 273, (R,S)1-((2α,3β,4α)-2-methyl-4-phenyl-1-(2,2,2-trifluoroethyl)pyrrolidin-3-yl)-3-(2-phenyl-2,4,5,6-tetrahydrocyclopenta[c]pyrazol-3-yl)urea] | 100 to 1000
COCCN1C[C@@H](NC(=O)Nc2c3c(nn2-c2cccnc2)CCC3)[C@H](c2ccccc2)C1 (relative stereo) [Example 19, 1-(trans-1-(2-methoxyethyl)-4-phenylpyrrolidin-3-yl)-3-(2-(pyridin-3-yl)-2,4,5,6-tetrahydrocyclopenta[c]pyrazol-3-yl)urea] | 100 to 1000
COCCN1C[C@@H](NC(=O)Nc2c(C)c(-c3cnn(C)c3)nn2-c2ccccc2)[C@H](c2cc(F)cc(F)c2)C1 [Example 442, 1-(1′,4-dimethyl-1-phenyl-1H, 1′H-[3,4′-bipyrazol]-5-yl)-3-((3S,4R)-4-(3,5-difluorophenyl)-1-(2-methoxyethyl)pyrrolidin-3-yl)urea] | < 100
COCCN1C[C@@H](NC(=O)Nc2c(Cl)c(C)nn2-c2ccccc2)[C@H](c2ccc(F)c(F)c2)C1 [Example 64, 1-(4-chloro-3-methyl-1-phenyl-1H-pyrazol-5-yl)-3-((3S,4R)-4-(3,4-difluorophenyl)-1-(2-methoxyethyl)pyrrolidin-3-yl)urea] | < 100
COCCN1C[C@@H](NC(=O)Nc2c(C)c(C)nn2-c2ccccc2)[C@H](c2cccc(C(F)(F)F)c2)C1 [Example 336, 1-(3,4-dimethyl-1-phenyl-1H-pyrazol-5-yl)-3-((3S,4R)-1-(2-methoxyethyl)-4-(3-(trifluoromethyl)phenyl)pyrrolidin-3-yl)urea] | < 100
COCCN1C[C@@H](NC(=O)Nc2c(C)c(-c3cnn(C)n3)nn2-c2ccccc2)[C@H](c2ccc(F)cc2)C1 [Example 385, 1-((3S,4R)-4-(4-fluorophenyl)-1-(2-methoxyethyl)pyrrolidin-3-yl)-3-(4-methyl-3-(2-methyl-2H-1,2,3-triazol-4-yl)-1-phenyl-1H-pyrazol-5-yl)urea] | < 100
COCCN1C[C@@H](NC(=O)Nc2c(C)c(-c3cnn(CCOC)c3)nn2-c2ccccc2)[C@H](c2cccc(F)c2)C1 [Example 383, 1-((3S,4R)-4-(3-fluorophenyl)-1-(2-methoxyethyl)pyrrolidin-3-yl)-3-(1′-(2-methoxyethyl)-4-methyl-1-phenyl-1H,1′H-[3,4′-bipyrazol]-5-yl)urea] | < 100
COCCN1C[C@@H](NC(=O)Nc2c3c(nn2-c2ccccc2)COC3)[C@H](c2ccccc2)C1 [Example 81, 1-((3S,4R)-1-(2-methoxy-ethyl)-4-phenylpyrrolidin-3-yl)-3-(2-phenyl-4,6-dihydro-2H-furo[3,4-c]pyrazol-3-yl)urea] | < 100
COCCN1C[C@@H](NC(=O)Nc2cc(C)nn2C)[C@H](c2ccccc2)C1 (relative stereo) [Example 6, 1-(1,3-dimethyl-1H-pyrazol-5-yl)-3-(trans-1-(2-methoxyethyl)-4-phenylpyrrolidin-3-yl) urea] | 1000 to 10000
CCOc1nn(-c2ccccc2)c(NC(=O)N[C@@H]2CN(c3cc[nH]n3)C[C@H]2c2cc(F)cc(F)c2)c1C [Example 218, 1-((3S,4R)-4-(3,5-difluorophenyvl)-1-(1H-pyrazol-3-yl)pyrrolidin-3-yl)-3-(3-ethoxy-4-methyl-1-phenyl-1H-pyrazol-5-yl)urea] | < 100

The remaining lines, values ahead:

IC50 [nM] | SMILES
< 100 | COCCN1C[C@@H](NC(=O)Nc2c(C)c(-c3nn(C(C)C)c(=O)o3)nn2-c2ccccc2)[C@H](c2ccc(F)c(F)c2)C1 [Example 601, 1-((3S,4R)-4-(3,4-difluorophenyvl)-1-(2-methoxyethyl)pyrrolidin-3-yl)-3-(3-(4-isopropyl-5-oxo-4,5-dihydro-1,3,4-oxadiazol-2-yl)-4-methyl-1-phenyl-1H-pyrazol-5-yl)urea]
< 100 | CCn1cc(-c2nn(-c3ccccc3)c(NC(=O)N[C@@H]3CN(CCOC)C[C@H]3c3ccc(F)cc3)c2C)cn1 [Example 524, 1-(1′-ethyl-4-methyl-1-phenyl-1H, 1′H-[3,4′-bipyrazol]-5-yl)-3-((3S,4R)-4-(4-fluorophenyl)-1-(2-methoxyethyl)pyrrolidin-3-yl)urea]
< 100 | COCCN1C[C@@H](NC(=O)Nc2c(C(N)=O)c(C)nn2-c2ccccc2)[C@H](c2ccc(Cl)c(F)c2)C1 (relative stereo) [Example 624, 5-(3-((trans)-4-(4-chloro-3-fluorophenyl)-1-(2-methoxyethyl)pyrrolidin-3-yl)ureido)-3-methyl-1-phenyl-1H-pyrazole-4-carboxamide]
< 100 | COCCN1C[C@@H](NC(=O)Nc2c(C)c(OC[C@H](O)COC)nn2-c2ccccc2)[C@H](c2ccc(F)c(F)c2)C1 [Example 563, 1-((3S,4R)-4-(3,4-difluorophenyl)-1-(2-methoxyethyl)pyrrolidin-3-yl)-3-(3-((R)-2-hydroxy-3-methoxypropoxy)-4-methyl-1-phenyl-1H-pyrazol-5-yl)urea]
< 100 | COCCN1C[C@@H](NC(=O)Nc2c(-c3ccccc3)nn(C)c2C(F)(F)F)[C@H](c2ccc(F)c(F)c2)C1 [Example 647, 1-((3S,4R)-4-(3,4-difluorophenyl)-1-(2-methoxyethyl)pyrrolidin-3-yl)-3-(1-methyl-3-phenyl-5-(trifluoromethyl)-1H-pyrazol-4-yl)urea]
< 100 | COCCN1C[C@@H](NC(=O)Nc2c(C)c(-c3cnn(C)c3)nn2-c2ccccc2)[C@H](c2ccc(Cl)c(F)c2)C1 [Example 466, 1-((3S,4R)-4-(4-chloro-3-fluorophenyl)-1-(2-methoxyethyl)pyrrolidin-3-yl)-3-(1′,4-dimethyl-1-phenyl-1H, 1′H-3,4′-bipyrazol-5-yl)urea]
< 100 | COCCN1C[C@@H](NC(=O)Nc2cnn3ccccc23)[C@H](c2ccc(F)c(F)c2)C1 [Example 637, 1-((3S,4R)-4-(3,4-difluorophenyl)-1-(2-methoxyethyl)pyrrolidin-3-yl)-3-(pyrazolo[1,5-a]pyridin-3-yl)urea]
< 100 | CCc1nn(-c2ccccc2)c(NC(=O)N[C@@H]2CN(CCOC)C[C@H]2c2ccc(F)c(F)c2)c1C(N)=O [Example 621, 5-(3-((3S,4R)-4-(3,4-difluorophenyl)-1-(2-methoxyethyl)pyrrolidin-3-yl)ureido)-3-ethyl-1-phenyl-1H-pyrazole-4-carboxamide]
< 100 | COCCN1C[C@@H](NC(=O)Nc2c(Br)c(-c3ccccn3)nn2-c2ccccc2)[C@H](c2ccc(F)c(F)c2)C1 [Example 484, 1-(4-bromo-1-phenyl-3-(pyridin-2-yl)-1H-pyrazol-5-yl)-3-((3S,4R)-4-(3,4-difluorophenyl)-1-(2-methoxyethyl)pyrrolidin-3-yl)urea]
